The supplement of paper PMC10307832

Columns and labels:
Test in all cases: relative viability (nuclei count vs DMSO), 5 days (fraction); higher = more cells survive
DM3189 + OSI-027 = compound: C1CN(CCN1)C2=CC=C(C=C2)C3=CN4C(=C(C=N4)C5=CC=NC6=CC=CC=C56)N=C3 [DM3189] + COc1cccc2cc(-c3nc([C@H]4CC[C@H](C(=O)O)CC4)n4ncnc(N)c34)[nH]c12 [OSI-027] (partner 0.5 µM)
Method in brief: (§1)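 Medians of duplicate plates are given as relative viability. That measure is the nuclei count in treated wells divided by the count in vehicle wells. Counts were taken on 4× images of lung cancer cell lines in 1536-well plates, 5 days after pin-tool dosing the day after seeding with one drug alone or a fixed anchor-drug dose plus five library-drug doses (not always all listed) in √10 steps.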

DM3189 + Lapatinib = compound: C1CN(CCN1)C2=CC=C(C=C2)C3=CN4C(=C(C=N4)C5=CC=NC6=CC=CC=C56)N=C3 [DM3189] + CS(=O)(=O)CCNCc1ccc(-c2ccc3ncnc(Nc4ccc(OCc5cccc(F)c5)c(Cl)c4)c3c2)o1 [Lapatinib] (partner 2 µM)
Method in brief: as §1

DM3189 + Pictilisib = compound: C1CN(CCN1)C2=CC=C(C=C2)C3=CN4C(=C(C=N4)C5=CC=NC6=CC=CC=C56)N=C3 [DM3189] + CS(=O)(=O)N1CCN(Cc2cc3nc(-c4cccc5[nH]ncc45)nc(N4CCOCC4)c3s2)CC1 [Pictilisib] (partner 1 µM)
Method in brief: as §1

DM3189 + Bortezomib = compound: C1CN(CCN1)C2=CC=C(C=C2)C3=CN4C(=C(C=N4)C5=CC=NC6=CC=CC=C56)N=C3 [DM3189] + CC(C)C[C@H](NC(=O)[C@H](Cc1ccccc1)NC(=O)c1cnccn1)B(O)O [Bortezomib] (partner 0.002 µM)
Method in brief: as §1

DM3189 + Navitoclax = compound: C1CN(CCN1)C2=CC=C(C=C2)C3=CN4C(=C(C=N4)C5=CC=NC6=CC=CC=C56)N=C3 [DM3189] + CC1(C)CCC(c2ccc(Cl)cc2)=C(CN2CCN(c3ccc(C(=O)NS(=O)(=O)c4ccc(N[C@H](CCN5CCOCC5)CSc5ccccc5)c(S(=O)(=O)C(F)(F)F)c4)cc3)CC2)C1 [Navitoclax] (partner 0.5 µM)
Method in brief: as §1

Row | Cell Line | relative viability (DM3189 + OSI-027; first compound 0.08 µM) | relative viability (DM3189 + OSI-027; first compound 0.253 µM) | relative viability (DM3189 + OSI-027; first compound 0.8 µM) | relative viability (DM3189 + OSI-027; first compound 2.53 µM) | relative viability (DM3189 + Lapatinib; first compound 0.08 µM) | relative viability (DM3189 + Lapatinib; first compound 0.253 µM) | relative viability (DM3189 + Lapatinib; first compound 0.8 µM) | relative viability (DM3189 + Lapatinib; first compound 2.53 µM) | relative viability (DM3189 + Pictilisib; first compound 0.08 µM) | relative viability (DM3189 + Pictilisib; first compound 0.253 µM) | relative viability (DM3189 + Pictilisib; first compound 0.8 µM) | relative viability (DM3189 + Pictilisib; first compound 2.53 µM) | relative viability (DM3189 + Bortezomib; first compound 0.08 µM) | relative viability (DM3189 + Bortezomib; first compound 0.253 µM) | relative viability (DM3189 + Bortezomib; first compound 0.8 µM) | relative viability (DM3189 + Bortezomib; first compound 2.53 µM) | relative viability (DM3189 + Navitoclax; first compound 0.08 µM) | relative viability (DM3189 + Navitoclax; first compound 0.253 µM) | relative viability (DM3189 + Navitoclax; first compound 0.8 µM) | relative viability (DM3189 + Navitoclax; first compound 2.53 µM)
1 | NCI-H1915 | 0.823 | 0.62 | 0.543 | 0.553 | 1 | 0.867 | 0.705 | 0.737 | 0.974 | 0.915 | 0.646 | 0.891 | 1.04 | 0.904 | 0.83 | 0.88 | 0.772 | 0.777 | 0.729 | 0.857
2 | PC-3 [JPC-3] | 0.887 | 0.422 | 0.79 | 0.587 | 0.436 | 0.456 | 0.431 | 0.439 | 0.871 | 0.71 | 0.669 | 0.75 | 1 | 0.869 | 0.849 | 0.785 | 0.826 | 0.83 | 0.859 | 0.892
3 | SW 1573 | 0.569 | 0.618 | 0.488 | 0.523 | 1.1 | 0.944 | 1.16 | 1.23 | 0.541 | 0.491 | 0.466 | 0.399 | 1.16 | 0.869 | 1 | 0.82 | 1.11 | 0.964 | 0.901 | 1.25
4 | NCI-H1437 | 0.895 | 0.862 | 0.906 | 1.08 | 0.793 | 0.767 | 0.765 | 0.852 | 0.425 | 0.438 | 0.411 | 0.537 | 0.601 | 0.442 | 0.543 | 0.628 | 0.994 | 1.1 | 1.06 | 1.05
5 | NCI-H1734 | 0.684 | 0.572 | 0.592 | 0.565 | 1.07 | 0.987 | 0.961 | 0.939 | 0.541 | 0.417 | 0.442 | 0.383 | 1.02 | 0.982 | 0.778 | 0.775 | 0.903 | 0.81 | 0.774 | 0.844
6 | HCC-15 | 0.757 | 0.599 | 0.524 | 0.673 | 0.983 | 0.843 | 0.81 | 0.816 | 0.764 | 0.695 | 0.584 | 0.661 | 1.11 | 1 | 0.978 | 0.862 | 0.687 | 0.675 | 0.646 | 0.735
7 | HCC-366 | 0.888 | 0.856 |  | 0.808 | 0.839 | 0.93 | 0.681 | 0.931 | 0.209 | 0.134 | 0.116 | 0.137 | 1.12 | 0.99 | 0.931 | 1.06 | 0.955 | 1.06 | 0.842 | 1.04
8 | NCI-H2405 | 0.584 | 0.608 | 0.636 | 0.724 | 1.14 | 1.01 | 0.979 | 0.958 | 0.467 | 0.378 | 0.422 | 0.408 | 0.986 | 0.946 | 0.966 | 0.96 | 0.758 | 0.802 | 0.873 | 0.89
9 | LXF-289 | 1.01 | 0.747 | 0.746 | 0.891 | 0.9 | 0.934 | 0.868 | 0.981 | 0.834 | 0.773 | 0.775 | 0.935 | 1 | 0.929 | 0.988 | 1.11 | 0.983 | 0.927 | 0.932 | 1.07
10 | BEN | 0.389 | 0.323 | 0.315 | 0.309 | 0.707 | 0.699 | 0.703 | 0.708 | 0.553 | 0.601 | 0.617 | 0.581 | 0.926 | 0.781 | 0.686 | 0.771 | 0.448 | 0.0733 | 0.0662 | 0.0697
11 | NCI-H2085 | 0.835 | 0.721 | 0.722 | 0.864 | 0.806 | 0.77 | 0.765 | 0.848 | 0.379 | 0.473 | 0.393 | 0.409 | 1.08 | 1.04 | 1.03 | 0.958 | 1.2 | 1.16 | 1.19 | 1.11
12 | NCI-H727 | 0.471 | 0.606 | 0.486 | 0.583 | 0.829 | 0.626 |  | 0.781 | 0.593 | 0.347 |  | 0.227 | 1.07 | 0.854 |  | 0.716 | 0.461 | 0.373 |  | 0.511
13 | NCI-H1355 | 0.482 | 0.36 | 0.366 | 0.39 | 1.07 | 0.972 | 0.819 | 0.919 | 0.539 | 0.399 | 0.311 | 0.362 | 1.21 | 1.22 | 0.992 | 1.17 | 0.926 | 0.953 | 0.819 | 0.951
14 | COR-L 105 | 1.21 | 0.928 | 0.789 | 0.615 | 0.432 | 0.362 | 0.312 | 0.281 | 0.52 | 0.398 | 0.361 | 0.275 | 1.38 | 0.771 | 0.795 | 0.322 | 0.861 | 0.675 | 0.729 | 0.816
15 | NCI-H23 | 0.664 | 0.594 | 0.457 | 0.577 | 1.32 | 0.888 | 0.994 | 1.19 | 0.637 | 0.462 | 0.385 | 0.442 | 1.18 | 0.825 | 0.928 | 1.02 | 0.917 | 0.794 | 0.742 | 0.741
